Tests used:
[1] = tested on: diclofenac-induced gastric ulcers; experiment: Diclofenac-induced acute gastric ulcers in rats; settings: Single oral administration of diclofenac free acid 100 mg/kg, fasted animals
Experimental: Wistar rats of either sex were fasted overnight and weighing 170-200 g at the time of testing were used throughout. […] A dosing volume of 10 ml/kg was used for each sequential solution or suspension. All doses were coded and the test was performed under a code not known to the observer.
The ulcers were induced as described by Chan et al. (1995). In brief, overnight fasted animals were weighed and randomly divided into four groups. […] The number of ulcers was identified using 10× magnifying lens, counted, multiplied by respective score, and summed up for each animal. The mean score as ulcer index in each group was calculated as mentioned below.

[2] = tested on: Indomethacin-induced gastric ulcers; experiment: Indomethacin-induced acute gastric ulcers in rats; type: in vivo, Wistar rats; settings: Single oral administration of indomethacin 20 mg/kg, fasted animals
Experimental: The observed unexpected gastroprotective effect of Chondroitin sulphate is evidenced by test conducted in rats. Wistar rats of either sex were procured from Central Animal House facility, Panacea Biotec Ltd., India. The animals were fasted overnight and those weighing between 150-170 gms at the time of testing were used throughout. […] In brief, overnight fasted animals were administered orally with 20 mg/kg of Indomethacin on the day of experimentation. […] [table]

| Structure (SMILES) | Gastric damage (in words) [1] | Gastric damage (in words) [2] |
| --- | --- | --- |
| O=C(O)Cc1ccccc1Nc1c(Cl)cccc1Cl [Diclofenac, Diclofenac free acid] | severe gastric damage |  |
| COc1ccc2c(c1)c(CC(=O)O)c(C)n2C(=O)c1ccc(Cl)cc1 [Indomethacin] |  | severe gastric damage |
